Assay results from the NIST ThermoML archive (doi:10.1016/j.jct.2018.12.018).
“And” between values parts separate entries of the source, which are not always exact repeats. Equal entries are not always repeated.

Settings: Liquid; for speed of sound: Frequency=3 MHz, Single path-length method; for mass density: Vibrating tube method

CC(C)O [propan-2-ol]
Settings	mass density	speed of sound [m/s]
293.15 K, 100 kPa	785.4 kg/m3 and 785.46 kg/m3	1157.5
293.15 K, 1000 kPa	786.2 kg/m3	–
293.15 K, 5000 kPa	789.6 kg/m3	–
293.15 K, 10000 kPa	793.6 kg/m3	–
293.15 K, 15000 kPa	797.4 kg/m3	–
293.15 K, 20000 kPa	801.1 kg/m3	–
293.15 K, 25000 kPa	804.5 kg/m3	–
293.15 K, 30000 kPa	807.9 kg/m3	–
293.15 K, 35000 kPa	811.2 kg/m3	–
293.15 K, 40000 kPa	814.2 kg/m3	–
293.15 K, 45000 kPa	817.2 kg/m3	–
293.15 K, 50000 kPa	820.1 kg/m3	–
293.15 K, 55000 kPa	822.9 kg/m3	–
293.15 K, 60000 kPa	825.6 kg/m3	–
293.15 K, 65000 kPa	828.2 kg/m3	–
293.15 K, 70000 kPa	830.8 kg/m3	–
293.15 K, 80000 kPa	835.8 kg/m3	–
293.15 K, 90000 kPa	840.5 kg/m3	–
293.15 K, 100000 kPa	845 kg/m3	–
293.15 K, 110000 kPa	849.4 kg/m3	–
293.15 K, 120000 kPa	853.5 kg/m3	–
293.15 K, 130000 kPa	857.6 kg/m3	–
293.15 K, 140000 kPa	861.2 kg/m3	–
298.15 K, 100 kPa	781.27 kg/m3 and 781.4 kg/m3	1139.7
298.15 K, 1000 kPa	782.1 kg/m3	–
298.15 K, 5000 kPa	785.6 kg/m3	–
298.15 K, 10000 kPa	789.8 kg/m3	–
298.15 K, 15000 kPa	793.7 kg/m3	–
298.15 K, 20000 kPa	797.3 kg/m3	–
298.15 K, 25000 kPa	800.9 kg/m3	–
298.15 K, 30000 kPa	804.3 kg/m3	–
298.15 K, 35000 kPa	807.7 kg/m3	–
298.15 K, 40000 kPa	810.8 kg/m3	–
298.15 K, 45000 kPa	813.8 kg/m3	–
298.15 K, 50000 kPa	816.7 kg/m3	–
298.15 K, 55000 kPa	819.7 kg/m3	–
298.15 K, 60000 kPa	822.5 kg/m3	–
298.15 K, 65000 kPa	825.2 kg/m3	–
298.15 K, 70000 kPa	827.6 kg/m3	–
298.15 K, 80000 kPa	832.8 kg/m3	–
298.15 K, 90000 kPa	837.5 kg/m3	–
298.15 K, 100000 kPa	842.3 kg/m3	–
298.15 K, 110000 kPa	846.4 kg/m3	–
298.15 K, 120000 kPa	850.8 kg/m3	–
298.15 K, 130000 kPa	854.8 kg/m3	–
298.15 K, 140000 kPa	858.7 kg/m3	–
303.15 K, 100 kPa	777 kg/m3	1122.6
313.15 K, 100 kPa	768.21 kg/m3 and 768.2 kg/m3	1087.2
313.15 K, 1000 kPa	769.1 kg/m3	–
313.15 K, 5000 kPa	773 kg/m3	–
313.15 K, 10000 kPa	777.4 kg/m3	–
313.15 K, 15000 kPa	781.8 kg/m3	–
313.15 K, 20000 kPa	785.7 kg/m3	–
313.15 K, 25000 kPa	789.5 kg/m3	–
313.15 K, 30000 kPa	793.3 kg/m3	–
313.15 K, 35000 kPa	796.9 kg/m3	–
313.15 K, 40000 kPa	800.1 kg/m3	–
313.15 K, 45000 kPa	803.4 kg/m3	–
313.15 K, 50000 kPa	806.5 kg/m3	–
313.15 K, 55000 kPa	809.6 kg/m3	–
313.15 K, 60000 kPa	812.5 kg/m3	–
313.15 K, 65000 kPa	815.4 kg/m3	–
313.15 K, 70000 kPa	818.2 kg/m3	–
313.15 K, 80000 kPa	823.4 kg/m3	–
313.15 K, 90000 kPa	828.5 kg/m3	–
313.15 K, 100000 kPa	833.1 kg/m3	–
313.15 K, 110000 kPa	837.8 kg/m3	–
313.15 K, 120000 kPa	842.1 kg/m3	–
313.15 K, 130000 kPa	846.4 kg/m3	–
313.15 K, 140000 kPa	850.4 kg/m3	–
323.15 K, 100 kPa	759.07 kg/m3	1051.8
333.15 K, 100 kPa	749.42 kg/m3 and 749.4 kg/m3	1015.3
333.15 K, 1000 kPa	750.5 kg/m3	–
333.15 K, 5000 kPa	754.9 kg/m3	–
333.15 K, 10000 kPa	760 kg/m3	–
333.15 K, 15000 kPa	764.9 kg/m3	–
333.15 K, 20000 kPa	769.3 kg/m3	–
